# Tested on: multiple myeloma tumor cell line RPMI 8226
# Assay: Promega Cell Titer-Glo antiproliferative assay, single agent and combination
# Type: cell-based, human
# Settings: unit from figure X axis
# Experimental: The antiproliferative activity of tris(8-quinolinolato)gallium(III) and lenalidomide against the human multiple myeloma tumor cell line RPMI 8226 was determined with Promega's Cell Titer-Glo® assay. The human tumor cells were placed in a 96-well microculture plate at the appropriate density for 96 hours of total growth time. After 24 hours of incubation in a humidified incubator at 37° C. with 5% CO2 and 95% air, serially diluted test agents in growth medium were added to each well. After 96 total hours of culture in a CO2 incubator, the plates were processed with Cell Titer-Glo (Promega #G7571) according to manufacturer's instructions. Luminescence was detected using a Tecan GENios microplate reader. Percent inhibition of cell growth was calculated relative to untreated control wells. All tests were performed in duplicate at each concentration level. The IC50 value for the test agents was estimated using Prism 3.03 by curve-fitting the data using the following four parameter-logistic equation: […]
# The same Promega Cell Titer-Glo® assay described above was used in the combination study. […] After 96 hours, the cell number was determined with the Cell Titer Glo® assay as described above. […]
compound,measurement,setting,value
[Ga+3].[O-]c1cccc2cccnc12.[O-]c1cccc2cccnc12.[O-]c1cccc2cccnc12 [tris(8-quinolinolato)gallium(III)],IC50,"RPMI-8226, tris(8-quinolinolato)gallium(III) alone",~0.9 µM
same,IC50,"RPMI-8226, with lenalidomide at a constant amount",0.5 µM

# Reference: patent US20140296178A1, “Combination Therapy with a Gallium Complex” (priority 2010, published 2014)
